Structures can show the parent of a compound that is named as a salt.
How the values were obtained:
[1] = test system: negative lens-induced myopia; assay: Choroidal thickness (OCTA) in the LIM myopia model; format: in vivo, guinea pigs; details: after the 7-day administration experiment of Example 7; vs vehicle control group
Procedure: Using the animal subjects in Example 7, choroidal parameters were detected after completion of the experiment (a few animals died during the measurement due to reasons unrelated to the test drugs, so these samples were eliminated). Specifically, choroidal thickness was measured in the LIM myopia model animals after completion of the 7-day administration experiment. Commercially available OCTA (Spectralis HRA + OCT, OCTA, Heidelberg, Germany) modified to be more suitable for animal eyeballs was used to detect the choroidal thickness. Before detection, the guinea pigs were fully anesthetized.

myopia [2] = details: higher concentration of atropine; cited from earlier work
[3] = test system: negative lens-induced myopia; assay: Negative lens-induced myopia (LIM) model in guinea pigs: interocular difference in refraction; details: for efficacy (refraction) in comparison between groups: day 3 of administration; for efficacy (refraction) in comparison between groups / refraction indicators vs vehicle group: 0.4%, 100 µL daily; for refraction indicators vs vehicle group: after the end of the administration period (7 days)
From the text: (§1) Form-deprivation and lens-induced myopia models in guinea pigs are classic and recognized myopic animal models in the art, and may be used for evaluating efficacy and safety of myopia treatment drugs, and methods for establishing such models are well-known to those skilled in the art. For animal modeling and administration routes in the present application, reference is made to previously published scientific documents by the research group (Sen Zhang, Invest Ophthalmol Vis Sci. 2019 Jul 1; 60(8):3074-3083.; Miaozhen Pan, Exp Eye Res. 2021 Jan; 202:108332.).
After individuals with significant ocular diseases or abnormalities were eliminated from healthy 3-week-old tricolor guinea pigs (both males and females), by detecting refraction (using an infrared eccentric photorefraction device) and the eye axis (using A-scan ultrasonography), animals with refractive power between 3 diopters and 8.5 diopters (D), an interocular difference in refraction not exceeding 2 D, and both interocular differences in vitreous chamber depth and axial length not exceeding 0.05 mm were selected. These animals were randomly divided into the following 5 groups. • 1. Lens induction + vehicle control group (Control): monocular wear of a -4 D lens, with 100 µL of vehicle (DMSO:PEG300:Tween80:0.9% normal saline = 1:45:5:49) administrated to the lens-wearing eye daily for 1 week, and the number of samples = 11; • 2. Lens induction + R-alpha lipoic acid experimental group (R.ALA): monocular wear of a -4 D lens, with 100 µL of 0.4% R-alpha lipoic acid administrated to the lens-wearing eye daily for 1 week, and the number of samples = 15; • 3. Lens induction + S-alpha lipoic acid experimental group (S.ALA): monocular wear of a -4 D lens, with 100 µL of 0.4% S-alpha lipoic acid administrated to the lens-wearing eye daily for 1 week, and the number of samples = 13; • 4. Lens induction + dihydrolipoic acid experimental group (DHLA): monocular wear of a -4 D lens, with 100 µL of 0.4% dihydrolipoic acid administrated to the lens-wearing eye daily for 1 week, and the number of samples = 14; • 5.
Beginning on the day of modeling, the corresponding vehicle or drug was administrated to the experimental eye (lens-wearing eye) daily between 9:00 AM and 10:00 AM via periocular subconjunctival injection at an injection volume of 100 µL, once daily for 1 week. All procedures for negative lens-induced myopia modeling, peribulbar injection administration, detection of parameters such as refraction, and data processing for all the subjects were consistent with the schemes previously used by the research group (CN114796205B). At the beginning, on day 3, and at the end of the LIM model efficacy experiment, the refraction was detected in animal subjects. The statistical basis was the difference between the experimental eye (lens-wearing eye) and the contralateral eye of the same subject.

form-deprivation myopia [4] = assay: Choroidal thickness (OCT) in the guinea pig form-deprivation model; format: in vivo, guinea pigs
Procedure: Choroidal thickness of all animal subjects in Example 2 were detected using Spectralis HRA + OCT (Heidelberg Engineering, Heidelberg, Germany) for 30 minutes to 60 minutes after the final administration (of either the vehicle or lipoic acid).
After completion of the experiment, the choroidal thickness was detected in animals in the two control groups and the 0.5% lipoic acid choline ester eye drop administration group in Example 6 (some animals died during the measurement due to reasons unrelated to the test drugs, so the corresponding samples were eliminated).

[5] = test system: age-related macular degeneration; details: oral administration; Kim et al. 2020; cited from earlier work
form-deprivation myopia [6] = assay: Form-deprivation myopia model (FDM) in guinea pigs: interocular differences in refraction and eye axis parameters; details: for Difference in Refraction (Refraction, D) Mean / Difference in Axial Length (AL, mm) Mean / Difference in Vitreous Chamber Depth (VCD, mm) Mean: FD + 0.94% lipoic acid, experimental eye vs contralateral eye; for Difference in Refraction (Refraction, D) Mean: periocular subconjunctival injection 100 µL once daily; for Difference in Axial Length (AL, mm) Mean / Difference in Vitreous Chamber Depth (VCD, mm) Mean: subconjunctival injection once daily; for myopia inhibition rate: 0.94% lipoic acid compared to the vehicle control group
From the text: as §1
After individuals with significant eye diseases or abnormalities were eliminated from three-week-old tricolor guinea pigs, by detecting refraction (using an infrared eccentric photorefraction device) and the eye axis (using A-scan ultrasonography), animals with refractive power between 3 and 8 diopters (D), an interocular difference in refraction not exceeding 2 D, and interocular differences in vitreous chamber depth and axial length not exceeding 0.05 mm were selected. These animals were randomly divided into two groups: an FD + vehicle control group (1% DMSO + 49% PEG300 + 50% normal saline, by volume) and an FD + 0.94% lipoic acid drug treatment group. At 8:00 AM on day 1 of the experiment, form deprivation was induced in the guinea pigs using a mask method, where the right eye (experimental eye) was occluded and the left eye was left unoccluded (contralateral eye). The FD induction was maintained throughout the entire period of the lipoic acid efficacy experiment, with the hoods only briefly removed for drug administration or ocular examination (for example, refraction detection). Starting on the first day of the efficacy experiment, position of the hood was checked daily at 8:00 AM, 12:00 PM, and 7:00 PM, as well as prior to administration. Individuals with hoods fell off more than three times during the administration period were excluded. Beginning on the day of modeling, the corresponding vehicle or drug (lipoic acid formulation) was administrated to the experimental eye daily between 9:00 AM and 10:00 AM via periocular subconjunctival injection at an injection volume of 100 µL. The vehicle or drug was administrated once daily for two consecutive weeks. Interocular refraction and eye axis parameters of all subjects were measured at the start of the efficacy experiment, 1 week after administration, and after the final administration. All data collection and processing methods were the same as those previously published by the laboratory of the inventors (Pan M, Zhao F, Xie B, et al. Dietary omega-3 polyunsaturated fatty acids are protective for myopia. Proc Natl Acad Sci U S A 2021 Oct 26; 118(43):e2104689118). Statistical basis was the difference between the experimental eye and the contralateral eye in the same subject.
Utilizing the same efficacy evaluation system for myopia treatment in the guinea pig form-deprivation model as described in Example 2, the prevention and control effects of mexidol, pyridoxol, astaxanthin, and blueberry fruit extract on myopia were compared against lipoic acid. The administration route was periocular subconjunctival injection.
The same efficacy evaluation system for myopia treatment in the guinea pig form-deprivation model as described in Example 2 was utilized to evaluate the myopia treatment effects of blueberry fruit extract + lipoic acid compound formulations at different prescription ratios. The administration route was periocular subconjunctival injection.

[7] = test system: form-deprivation-induced myopia; details: mice with pigmentary degeneration of retina caused by a gene mutation (rd10); Landis et al. 2016; cited from earlier work
myopia [8] = details: wild-type mouse myopia models; cited from earlier work
presbyopia [9] = details: cited from earlier work
presbyopia [10] = details: interim analysis, presbyopia treatment; cited from earlier work

## CN1[C@@H]2CC[C@H]1C[C@@H](OC(=O)C(CO)c1ccccc1)C2 (stereo partly drawn) [atropine sulfate, Atropine sulfate, reference compound]
[1]
  choroidal thickness, experimental eye vs contralateral eye, FIG. 13: could effectively inhibit the decrease in choroidal thickness
Myopia [2]
  effect upon discontinuation: rebound effect upon discontinuation

## O=C(O)CCCC[C@H]1CCSS1 [S-alpha lipoic acid]
[3]
  efficacy (refraction) in comparison between groups: superior to that of the dihydrolipoic acid group

## O=C(O)CCCC[C@@H](S)CCS (racemic) [dihydrolipoic acid, Dihydrolipoic acid]
[3]
  refraction indicators vs vehicle group: extremely significant differences compared with the vehicle group
[3]; guinea pig, in vivo
  anterior chamber depth and lens thickness, FIG. 10: did not affect the anterior chamber depth and lens thickness
  ocular irritations: neither the optical isomers of lipoic acid nor dihydrolipoic acid caused ocular irritations
[1]
  choroidal thickness, experimental eye vs contralateral eye, FIG. 13: could effectively inhibit the decrease in choroidal thickness

## O=C(O)CCCCC1CCSS1 (stereo not drawn) [Lipoic acid, alpha-lipoic acid]
form-deprivation myopia [4]; animals of Example 2 (0.94% lipoic acid), 30 to 60 minutes after the final administration
  choroidal thickness, experimental eye vs contralateral eye: could significantly inhibit the decrease in choroidal thickness in myopic eyes
[5]
  efficacy, clinical endpoint: did not reach a clinical endpoint
form-deprivation myopia [6]; 1 Week
  Difference in Refraction (Refraction, D) Mean: -2.2 D
  Difference in Axial Length (AL, mm) Mean: 0.04364 mm
  Difference in Vitreous Chamber Depth (VCD, mm) Mean: 0.0009091 mm
form-deprivation myopia [6]; 1 Week, listed as lipoic acid
  Difference in Axial Length (AL, mm) Mean: 0.04364 + 0.03295 mm
  Difference in Vitreous Chamber Depth (VCD, mm) Mean: 0.0009091 + 0.027 mm
form-deprivation myopia [6]; 2 Weeks
  Difference in Refraction (Refraction, D) Mean: -4.673 D
  Difference in Axial Length (AL, mm) Mean: 0.06364 mm
  Difference in Vitreous Chamber Depth (VCD, mm) Mean: 0.08545 mm
form-deprivation myopia [6]; 2 Weeks, listed as lipoic acid
  Difference in Axial Length (AL, mm) Mean: 0.06364 ± 0.03722 mm
  Difference in Vitreous Chamber Depth (VCD, mm) Mean: 0.08545 + 0.02067 mm
form-deprivation myopia [6]; Baseline
  Difference in Refraction (Refraction, D) Mean: -0.04545 D
  Difference in Axial Length (AL, mm) Mean: -0.004545 mm
  Difference in Vitreous Chamber Depth (VCD, mm) Mean: 0.09273 mm
form-deprivation myopia [6]; Example 4, 0.3% R-alpha lipoic acid, subconjunctival injection, 1 and 2 weeks
  axial elongation and increase in vitreous chamber depth, FIG. 5: could effectively inhibit the axial elongation and the increase in vitreous chamber depth
form-deprivation myopia [6]; Example 4, week 1 detection, 0.3% R-alpha lipoic acid (R-LA), periocular subconjunctival injection, compared with the other test drugs
  refraction (interocular difference), FIG. 4: optimal myopia treatment effect
form-deprivation myopia [6]; guinea pig, in vivo
  anterior chamber depth, lens thickness, corneal curvature: unaffected by the drug
  mydriatic effect (pupil diameter): No mydriatic effect was observed
  toxic reactions, ocular irritations, significant ocular abnormalities: no any toxic reactions, ocular irritations, or significant ocular abnormalities were observed
form-deprivation myopia [6]; week 1 of treatment
  myopia inhibition rate: 42.4%
form-deprivation myopia [6]; week 2 of treatment
  myopia inhibition rate: 21.1%

## O=C1O[C@H]([C@@H](O)CO)C(O)=C1O [vitamin C, ascorbic acid]
[7]
  form-deprivation-induced myopia: inhibit form-deprivation-induced myopia
Myopia [8]
  therapeutic effects on myopia: failed to achieve therapeutic effects

## C[N+](C)(C)CCOC(=O)CCCC[C@@H]1CCSS1 [lipoic acid choline ester, R-alpha-Lipoic acid choline ester]
Presbyopia [9]; eye drops at a concentration of 1.5%
  bioavailability: good bioavailability
Presbyopia [9]; in vivo
  safety: high safety
form-deprivation myopia [4]; Example 9, 0.5% lipoic acid choline ester eye drops, after completion of Example 6, vs negative control group
  thinning of the choroid (choroidal thickness), FIG. 12: could effectively inhibit thinning of the choroid
Presbyopia [10]
  primary endpoint: fails to meet the primary endpoint
form-deprivation myopia [6]; Example 6, 0.5% LACE eye drops twice a day, 25 µL, vs vehicle
  axial elongation, FIG. 8-1 (B): significantly inhibit the axial elongation
form-deprivation myopia [6]; Example 6, LACE eye drops 0.5% and 0.15%
  dose-effect relationship of myopia treatment effect: positively related dose-effect relationship
form-deprivation myopia [6]; Example 6, direct eye drop instillation twice a day, 25 µL, 0.5% LACE, 0.05% atropine sulfate positive control, throughout the administration period, vs vehicle
  progression of negative refraction, FIG. 8-1 (A): could significantly inhibit progression of negative refraction
form-deprivation myopia [6]; guinea pig, in vivo
  anterior chamber depth, lens thickness, corneal curvature, FIG. 8-2: no statistical differences
  drug-induced mydriasis: did not observe drug-induced mydriasis
  ocular abnormalities or mydriasis: no ocular abnormalities or mydriasis were observed

## O=C(O)CCCC[C@@H]1CCSS1 [R-alpha lipoic acid]
[3]
  refraction indicators vs vehicle group: extremely significant differences compared with the vehicle group
  efficacy (refraction) in comparison between groups: superior to that of the dihydrolipoic acid group
form-deprivation myopia [6]; Example 4, end of the administration period (2 weeks), subconjunctival injection, 0.05% atropine sulfate, 0.3% R-LA, 0.37% ES, 0.3% PH, 0.87% ASTA, 6% BFE, vs control
  refraction (interocular difference), FIG. 4: significant myopia treatment effects
[1]
  choroidal thickness, experimental eye vs contralateral eye, FIG. 13: could more significantly increase the choroidal thickness

Source: patent publication EP4721736A1, “PHARMACEUTICAL COMPOSITION FOR EFFECTIVELY DELAYING AND TREATING MYOPIA” (priority 2023, dated 2024)
